In the assay the test system is Hepatitis B virus (HBV) genotype C. The experiment in a line: HBV DNA content in culture supernatants of HBV-infected PXB hepatocytes, quantitative PCR with TaqMan probe. The format is cell-based, human hepatitis B virus. Particulars: for DNA content of HBV in the culture supernatants: PXB hepatocytes, replicates No. 1-3. The protocol: PXB hepatocytes prepared from “PXB-Mouse (registered trademark)” (manufactured by PhoenixBio) were used as test samples to examine the effect of a change in virus load by adding 5-ALA or the like to a medium. […] Therefore, PXB-Mouse is utilized as a human in vivo prediction model of hepatitis virus infections in pharmacokinetic studies.
Hepatitis B virus (HBV) genotype C was suspended in dHCGM medium (DMEM+10% FBS, 44 mM NaHCO3, 15 μg/mL L-proline, 0.25 μg/mL insulin, 50 […], 5 ng/mL EGF, 0.1 mM Asc-2P, 2% DMSO) containing 4% polyethylene glycol in the virus load of 2×10^6 per well to give 250 μL/well of a HBV infection medium. The sequence of HBV genotype C is disclosed in a public data bank such as GenBank and the accession number is AB246345.1.
5-ALA and sodium ferrous citrate (SFC) were blended in dHCGM medium at the concentrations shown in Table 1 below to prepare 250 μL each of test media. As a positive control medium, a medium prepared by dissolving 2.5 nM entecavir (manufactured by Santa Cruz Biotechnology, Inc.) in dHCGM medium was used.
PXB hepatocytes, which are primary cultured liver cells isolated by a two-step collagenase perfusion procedure (Yamasaki C, et al. Drug Metab Pharmacokinet. 2010, 25:539-550.) from 12- to 16-week-old PXB mice having a body weight of 11 g or more, were suspended in Dulbecco's modified Eagle's medium (DMEM) with 10% fetal bovine serum (FBS) (DMEM+10% FBS) containing 100 IU/mL penicillin G, 100 μg/mL streptomycin and 20 mM HEPES, seeded in a 24-well plate coated with type I collagen at a density of 4×10^5 cells/well, and incubated at 37° C. under 5% CO2. The next day, the medium was removed, and 500 μL of DMEM+10% FBS was then added to each well. Thereafter, the medium was removed again, 250 μL of the above-mentioned HBV infection medium or a non-infection medium and 250 μL each of the above-mentioned test medium were added to each well to provide 500 μL each of evaluation media. The evaluation media were incubated at 37° C. under 5% CO2 for 20 to 28 hours. On day 1, 2, 7, 12 and 17 after HBV virus infection, the media were replaced by 500 μL each of the above-mentioned evaluation media. On day 12, 17 and 22 after the virus infection, culture supernatants were collected and the DNA content of HBV in the supernatants was determined by a quantitative PCR assay with TaqMan probe. The incubation period after the virus infection was 22 days. The results are shown in the following Tables 2 and 3 and the graph of FIG. 1. The ordinate of FIG. 1 indicates the DNA content of HBV in the culture supernatants.

We go through three compounds from patent US20180125805A1, “PROPHYLACTIC/THERAPEUTIC AGENT FOR VIRUS INFECTIONS WHICH COMPRISES ALA COMPOUND” (SBI Pharmaceuticals Co., Ltd., priority 2015, published 2018).

Several values for one entry are separate records, joined by “and”; a condition that tells them apart may be missing. Equal entries are not always repeated.

For sodium ferrous citrate [SFC], the “DNA content of HBV in the culture supernatants” value (from here on “DNA content of HBV”) runs as follows: (SFC 0.5 mM, day 12 after virus infection) 6.1 log copies/mL (2×) and 6.2 log copies/mL; (SFC 0.5 mM, day 17 after virus infection) 6.3 log copies/mL and 6.4 log copies/mL (2×); (SFC 0.5 mM, day 22 after virus infection) 6.5 log copies/mL. Moreover, the “proliferation of HBV virus (FIG. 1)” value (SFC 500 μM, day 12 and 17 after the virus infection, P<0.05) is given as “significantly inhibited”.

As for `NCC(=O)CCC(=O)O` [ALA, 5-aminolevulinic acid], the “DNA content of HBV” value reads like this: (ALA 1 mM, day 12 after virus infection) 6.0 log copies/mL and 6.1 log copies/mL and 5.8 log copies/mL; (ALA 1 mM, day 17 after virus infection) 6.0 log copies/mL (2×) and 5.8 log copies/mL; (ALA 1 mM, day 22 after virus infection) 6.1 log copies/mL and 5.9 log copies/mL and 6.0 log copies/mL.

With `C=C1[C@H](CO)[C@@H](O)C[C@@H]1n1cnc2c(=O)[nH]c(N)nc21` [ETV, entecavir, reference compound], the “DNA content of HBV” value is, setting by setting: (ETV 2.5 nM (positive control), day 12 after virus infection) 4.4 log copies/mL; (ETV 2.5 nM (positive control), day 17 after virus infection) 4.2 log copies/mL and 4.8 log copies/mL and 4.1 log copies/mL; (ETV 2.5 nM (positive control), day 22 after virus infection) 4.4 log copies/mL and 4.0 log copies/mL and 3.9 log copies/mL.
